Source: patent US20150197492A1, “NOVEL INDENO[1,2-c]QUINOLIN-11-ONE DERIVATIVES, PREPARATION METHOD AND APPLICATION THEREOF” (National Defense Medical Center, priority 2014, published 2015)

Columns and labels:
Assay in all cases: cells
Type in all cases: cell-based
[1] = test system: NCI-H322M; conditions: NCI-H322M (Non-Small Cell Lung Cancer), 10 μM, 48 hours
[2] = test system: A549/ATCC; conditions: A549/ATCC (Non-Small Cell Lung Cancer), 10 μM, 48 hours
[3] = test system: UACC-62; conditions: UACC-62 (Melanoma), 10 μM, 48 hours
[4] = test system: HCT-15; conditions: HCT-15 (Colon Cancer), 10 μM, 48 hours
[5] = test system: MOLT-4; conditions: MOLT-4 (Leukemia), 10 μM, 48 hours
[6] = test system: CAKI-1; conditions: CAKI-1 (Renal Cancer), 10 μM, 48 hours
[7] = test system: MDA-MB-435; conditions: MDA-MB-435 (Melanoma), 10 μM, 48 hours
[8] = test system: NCI-H522; conditions: NCI-H522 (Non-Small Cell Lung Cancer), 10 μM, 48 hours
[9] = test system: M14; conditions: M14 (Melanoma), 10 μM, 48 hours
[10] = test system: MDA-MB-468; conditions: MDA-MB-468 (Breast Cancer), 10 μM, 48 hours
[11] = test system: SNB-75; conditions: SNB-75 (CNS Cancer), 10 μM, 48 hours
[12] = test system: MDA-MB-231/ATCC; conditions: MDA-MB-231/ATCC (Breast Cancer), 10 μM, 48 hours
[13] = test system: LOX IMVI; conditions: LOX IMVI (Melanoma), 10 μM, 48 hours
[14] = test system: OVCAR-4; conditions: OVCAR-4 (Ovarian Cancer), 10 μM, 48 hours
[15] = test system: OVCAR-3; conditions: OVCAR-3 (Ovarian Cancer), 10 μM, 48 hours
[16] = test system: OVCAR-8; conditions: OVCAR-8 (Ovarian Cancer), 10 μM, 48 hours
[17] = test system: SK-OV-3; conditions: SK-OV-3 (Ovarian Cancer), 10 μM, 48 hours
[18] = test system: MALME-3M; conditions: MALME-3M (Melanoma), 10 μM, 48 hours
[19] = test system: UACC-257; conditions: UACC-257 (Melanoma), 10 μM, 48 hours
[20] = test system: SNB-19; conditions: SNB-19 (CNS Cancer), 10 μM, 48 hours
[21] = test system: HCC-2998; conditions: HCC-2998 (Colon Cancer), 10 μM, 48 hours
[22] = test system: PC-3; conditions: PC-3 (Prostate Cancer), 10 μM, 48 hours
[23] = test system: OVCAR-5; conditions: OVCAR-5 (Ovarian Cancer), 10 μM, 48 hours
[24] = test system: TK-10; conditions: TK-10 (Renal Cancer), 10 μM, 48 hours
[25] = test system: RPMI-8226; conditions: RPMI-8226 (Leukemia), 10 μM, 48 hours
[26] = test system: MCF7; conditions: MCF7 (Breast Cancer), 10 μM, 48 hours
[27] = test system: SF-268; conditions: SF-268 (CNS Cancer), 10 μM, 48 hours
[28] = test system: UO-31; conditions: UO-31 (Renal Cancer), 10 μM, 48 hours
[29] = test system: ACHN; conditions: ACHN (Renal Cancer), 10 μM, 48 hours

In the case of CN1CCN(c2nc3ccccc3c3c2-c2ccc(Cl)cc2C3=O)CC1 [SJ-12, 9-Chloro-6-(4-methylpiperazin-1-yl)-11H-indeno[1,2-c]quinolin-11-one], the growth percentage [1] is reported as 87.41%, the growth percentage [2] is reported as 96.43% and the growth percentage [3] is reported as 96.67%. For the same compound, the growth percentage [4] was 92.83%, the growth percentage [5] was 92.90% and the growth percentage [6] was 83.81%. The growth percentage [7] was 98.43%, the growth percentage [8] was 96.62% and the growth percentage [9] was 106.31%. It also gave a growth percentage [10] of 95.71%, a growth percentage [11] of 70.00% and a growth percentage [12] of 62.53%. For the same compound, the growth percentage [13] was 87.17%, the growth percentage [14] was 94.70% and the growth percentage [15] was 93.41%. The growth percentage [16] was 87.51%, the growth percentage [17] was 87.98% and the growth percentage [18] was 106.59%. For the same compound, the growth percentage [19] was 95.34%, the growth percentage [20] was 85.41% and the growth percentage [21] was 103.21%. It also gave a growth percentage [22] of 82.93%, a growth percentage [23] of 99.31% and a growth percentage [24] of 99.56%. The growth percentage [25] was 85.92%, the growth percentage [26] was 68.30% and the growth percentage [27] was 92.35%. For the same compound, the growth percentage [28] was 47.60% and the growth percentage [29] was 88.10%.

In the case of O=C1c2cc(Cl)ccc2-c2c(N3CCN(C(=O)N4CCCCC4)CC3)nc3ccccc3c21 [SJ-23], the growth percentage [1] is reported as 94.59%, the growth percentage [2] is reported as 99.12% and the growth percentage [3] is reported as 93.92%. The growth percentage [4] was 99.35%, the growth percentage [5] was 104.77% and the growth percentage [6] was 90.50%. It also gave a growth percentage [7] of 102.57%, a growth percentage [8] of 99.28% and a growth percentage [9] of 101.18%. The growth percentage [10] was 106.42%, the growth percentage [11] was 80.84% and the growth percentage [12] was 93.54%. The growth percentage [13] was 103.19%, the growth percentage [14] was 98.31% and the growth percentage [15] was 103.33%. For the same compound, the growth percentage [16] was 104.73%, the growth percentage [17] was 95.59% and the growth percentage [18] was 102.62%. It also gave a growth percentage [19] of 104.23%, a growth percentage [20] of 108.66% and a growth percentage [21] of 106.23%. For the same compound, the growth percentage [22] was 93.07%, the growth percentage [23] was 102.33% and the growth percentage [24] was 131.97%. For the same compound, the growth percentage [25] was 104.31%, the growth percentage [26] was 97.24% and the growth percentage [27] was 107.51%. It also gave a growth percentage [28] of 82.74% and a growth percentage [29] of 95.59%.
